{
  "source": "patent US7622551B2",
  "about": "“Leukocyte stimulating peptides” (POSCO, priority 2004, dated 2009)",
  "key": {"human monocytes": {"test_system": "human monocytes", "test": "Chemotaxis assay (modified Boyden chamber), monocytes", "assay_type": "cell-based", "conditions": "FIG. 6B; control peptide at concentrations less than 10 μM", "protocol": "(§1) FIGS. 6A and 6B show chemotactic effect of peptides. Assays were performed using a modified Boyden chamber assay, as described in the Examples. Isolated human neutrophils (A) or monocytes (B) (1×10^6 cells/ml in serum free RPMI) were added to the upper wells of a 96-well chemotaxis chamber and migration across a 3 μm pore size (5 μm for monocytes) polycarbonate membrane was assessed after 2 hrs incubation at 37° C. The numbers of migrated cells were determined by counting them in a high power field (400×). Results are presented as means±S.E. of three independent experiments each performed in duplicate.\n(§2) Chemotaxis assays were performed using multiwell chambers (Neuroprobe Inc., Gaithersburg, Md.) (Bae et al. Blood. 2001. 97: 2854-2862). Briefly, prepared human monocytes were suspended in RPMI at a concentration of 1×10^6 cells/ml, and 25 μl of the suspension was then placed onto the upper well of a chamber separated by a 5 μm polyhydrocarbon filter (3 μm pores size not polyvinylpyrrolidone coated, as is needed for neutrophils) from peptides or N-formyl-methionyl-leucyl-phenylalanine (fMLF) in the lower well. After incubation for 2 hours (90 minutes for neutrophils) at 37° C., non-migrated cells were removed by scraping, and cells that migrated across the filter were dehydrated, fixed, and stained with hematoxylin (Sigma, St. Louis, Mo.). Stained cells were counted in five randomly chosen high power fields (HPF) (400×) (Bae et al. Blood. 2001. 97: 2854-2862)."}, "FPRL1": {"biological_target": "T1, FPRL1 (Homo sapiens, UniProt P25090)", "T1 construct": "expressed in transfected cells; host or cells: RBL-2H3", "T1 sequence (P25090 1-351)": "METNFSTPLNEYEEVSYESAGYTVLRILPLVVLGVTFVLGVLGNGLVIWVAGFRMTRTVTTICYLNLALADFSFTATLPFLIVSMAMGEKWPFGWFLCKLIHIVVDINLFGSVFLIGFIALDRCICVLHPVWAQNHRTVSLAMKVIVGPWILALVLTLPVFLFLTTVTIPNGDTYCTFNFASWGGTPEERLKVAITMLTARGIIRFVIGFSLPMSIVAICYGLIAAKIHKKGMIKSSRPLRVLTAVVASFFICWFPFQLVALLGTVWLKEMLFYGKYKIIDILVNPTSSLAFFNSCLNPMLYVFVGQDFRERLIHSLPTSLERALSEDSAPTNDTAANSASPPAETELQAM", "test": "[Ca2+]i increase in FPRL1-expressing RBL-2H3 cells", "assay_type": "cell-based", "conditions": "10 μM of each peptide (FIG. 7)", "protocol": "(§3) U937 (human histiocytic lymphoma cells), HL60 (human promyelocytic leukemia cells), Raw 264.7 (mouse macrophage), Jurkat (human acute T cell leukemia), PC12 (rat adrenal pheochromocytoma cells), 3Y1 (Rat embryonic fibroblasts), 3T3L1 (preadipocytes), and NCI-H292 (human mucoepidermoid pulmonary carcinoma cells) were obtained from the American Type Culture Collection (Rockville, Md.) and maintained as recommended. FPR- or FPRL1 expressing RBL-2H3 cells were cultured as described previously (He et al. J. Immunol. 2000. 165: 4598-4605). Cells were maintained at about 1×10^6 cells/ml under standard incubator conditions (humidified atmosphere, 95% air, 5% CO2, at 37° C.). HL60 cells were induced to differentiate into the granulocyte phenotype by adding dimethylsulfoxide (DMSO) (final concentration 1.25%, v/v) for 4 days to the culture medium, as described previously (Itoh et al. Blood. 1998. 92: 1432-1441).\n(§4) The level of [Ca^2+]i was determined using Grynkiewicz's method using fura-2/AM (Grynkiewicz et al. J. Biol. Chem. 1985. 260: 3440-3550). Briefly, prepared cells were incubated with 3 μM of fura-2/AM at 37° C. for 50 min in serum-free RPMI 1640 medium under continuous stirring. 2×10^6 cells were aliquoted for each assay in Ca^2+ free Locke's solution (154 mM NaCl, 5.6 mM KCl, 1.2 mM MgCl2, 5 mM HEPES, pH 7.3, 10 mM glucose, and 0.2 mM EGTA). Fluorescence changes were measured at the dual excitation wavelength of 340 nm and 380 nm, and the calculated fluorescence ratio was translated into [Ca^2+]i."}, "human neutrophils [1]": {"test_system": "human neutrophils", "test": "Chemotaxis assay (modified Boyden chamber), neutrophils", "assay_type": "cell-based", "conditions": "concentrations less than 10 μM", "protocol": "as §1\nas §2, with “After incubation for 2 hours (90 minutes for neutrophils) at 37° C., non-migrated cells were removed by scraping, and cells that migrated across the filter were dehydrated, fixed, and stained with hematoxylin (Sigma, St. Louis, Mo.).” left out"}, "[2]": {"test_system": "differentiated HL60 cells", "test": "[Ca2+]i increase in fura-2 loaded dHL60 cells", "assay_type": "cell-based, human", "protocol": "as §3, §4"}, "[3]": {"test_system": "differentiated HL60 cells", "test": "Arachidonic acid (AA) release in [3H]AA-labeled dHL60 cells", "assay_type": "cell-based, human", "protocol": "as §3\nFor the initial screening of the PS-SPCLs, we measured the AA release stimulating activity of each peptide pool. Cultured dHL60 cells (10^7 cells/ml) were pre-labeled with 0.5 μCi/ml of (^3H)-AA in RPMI 1640 medium containing 10% FBS for 90 min at 37° C. in a humidified incubator supplied with 95% air and 5% CO2, as described previously (Bae et al. J. Immunol. 2000. 164: 4089-4096). The labeled cells were then washed twice with serum-free RPMI 1640 and incubated in RPMI 1640 medium containing 0.1% fatty acid-free BSA for 15 min at 37° C. After discarding the medium, the cells were stimulated with various concentrations of peptide for the indicated times. Radioactivity in the medium and of collected cells was determined with a liquid scintillation counter. When investigating the effects of inhibitors, cells were preincubated with the indicated concentrations of each inhibitor or vehicle for 15 min prior to stimulation."}, "human neutrophils [4]": {"test_system": "human neutrophils", "test": "Superoxide generation (cytochrome c reduction) in human neutrophils", "assay_type": "cell-based", "conditions": "1 μM of peptide, cytochrome c reduction", "protocol": "Peripheral blood leukocyte concentrates were donated by the Ulsan Red Cross Blood Center (Ulsan, Korea). PBMCs were separated on a Histopaque-1077 gradient. After two washings with HBSS without Ca^2+ and Mg^2+, the PBMCs were suspended in 10% FBS containing RPMI and incubated for 60 min at 37° C. to let the monocytes attach to the culture dish. Cells were washed 5 times with warmed RPMI medium to remove lymphocytes, and then the attached monocytes were collected, as described previously (Bae et al. J. Leukoc. Biol. 1999. 65: 241-248). Human neutrophils were isolated according to standard procedures; i.e., dextran sedimentation, hypotonic lysis of erythrocytes, and using a medium lymphocyte separation gradient, as described previously (Seo et al. J. Immunol. 1997. 158: 1895-1901). Isolated human leukocytes were then used promptly.\nWe determined superoxide anion generation by measuring cytochrome c reduction using a microtiter 96 well plate ELISA reader (Bio-Tekinstruments, EL312e, Winooski, Vt.) as described previously (Bae et al. Blood. 2001. 97: 2854-2862). Human neutrophils (1×10^6 cells/100 μl of RPMI 1640 medium per well of a 96-well plate) were preincubated with 50 μM of cytochrome c at 37° C. for 1 min and then incubated with the indicated peptide concentrations. Superoxide generation was determined from change in light absorption at 550 nm over 5 minutes at 1 min intervals."}, "FPR": {"biological_target": "T2, FPR (Homo sapiens, UniProt P21462)", "T2 construct": "expressed in transfected cells; host or cells: RBL-2H3", "T2 sequence (P21462 1-350)": "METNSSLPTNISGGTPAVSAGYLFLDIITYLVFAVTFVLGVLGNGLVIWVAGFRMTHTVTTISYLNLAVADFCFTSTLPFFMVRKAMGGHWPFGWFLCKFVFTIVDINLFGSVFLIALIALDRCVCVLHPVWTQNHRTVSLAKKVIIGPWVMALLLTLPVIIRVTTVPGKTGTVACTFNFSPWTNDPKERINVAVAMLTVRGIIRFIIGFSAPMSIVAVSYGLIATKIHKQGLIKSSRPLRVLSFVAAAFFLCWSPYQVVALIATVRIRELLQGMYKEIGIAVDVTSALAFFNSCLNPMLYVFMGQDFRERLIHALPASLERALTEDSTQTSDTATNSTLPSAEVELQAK", "test": "[Ca2+]i increase in FPR-expressing RBL-2H3 cells", "assay_type": "cell-based", "conditions": "data not shown", "protocol": "as §3, §4"}, "[5]": {"test_system": "undifferentiated HL60 cells", "test": "[Ca2+]i increase in undifferentiated HL60 cells", "assay_type": "cell-based, human", "protocol": "as §3, §4"}, "ERK": {"test_system": "ERK", "test": "ERK phosphorylation in dHL60 cells (anti-phospho-ERK immunoblot)", "assay_type": "cell-based, human", "protocol": "Each sample (30 μg of protein) was subjected to 8% SDS-PAGE, and phosphorylated ERK was quantified by immunoblot analysis with anti-phospho-ERK antibody. The results shown are from a single experiment representative of at least three independent experiments.\nExtracellular signal regulated protein kinase (ERK) is a well-known intracellular enzyme that mediates diverse cellular responses (Sugden et al. Cell Signal. 1997. 9: 337-351). […] To compare the intracellular signaling involving these 4 peptides, dHL60 cells were pretreated either with LY294002 (50 μM), GF109203X (5 μM), or PD98059 (50 μM) or left untreated as a control. After being incubated for the indicated periods (15 minutes for LY294002 and GF109203X, 60 minutes for PD98059), the cells were stimulated with 1 μM of each peptide for 5 minutes."}},
  "note": "Where no end group is shown, it is not given here.",
  "data": [
    {"substance": "LFMYHP [reference compound]", "values": [
      {"measurement": "Cellular chemotaxis in human monocytes (in words)", "setting": "human monocytes", "result": "did not induce"},
      {"measurement": "[Ca^2+]i increase in FPRL1-expressing RBL-2H3 cells", "setting": "FPRL1", "result": "not to be able to induce calcium increase"},
      {"measurement": "Cellular chemotaxis in neutrophils (in words)", "setting": "human neutrophils [1]", "result": "did not induce"}
    ]},
    {"substance": "RKYYYM-NH2 [Peptide P18]", "values": [
      {"measurement": "Concentration of maximal activity, [Ca^2+]i increase", "setting": "[2]; dHL60 cells, data not shown", "result": "approximately 3 μM"},
      {"measurement": "[Ca^2+]i", "setting": "[2]; differentiated HL60 cells, fura-2, 1 μM of peptide", "result": "150 ± 14.5", "unit": "nM"},
      {"measurement": "AA release stimulating activity (in words)", "setting": "[3]; dHL60 cells, 10 μM", "result": "most potent"},
      {"measurement": "Effect of cPLA2-specific inhibitors AACOCF3 and MAFP on peptide-induced AA release", "setting": "[3]; dHL60 cells, inhibitor pretreatment 15 min, 1 μM peptide", "result": "blocked"},
      {"measurement": "Folds of increase (% of total), arachidonic acid release", "setting": "[3]; differentiated HL60 cells, 10 μM of peptide", "result": "2.61 ± 0.295", "unit": "folds"},
      {"measurement": "Superoxide production", "setting": "human neutrophils [4]", "result": "28.4 ± 3.21", "unit": "nmole/10^6 cells"},
      {"measurement": "[Ca^2+]i in FPR-expressing RBL-2H3 cells / ligand for FPR", "setting": "FPR", "result": "not for FPR"},
      {"measurement": "[Ca^2+]i increase in undifferentiated HL60 cells", "setting": "[5]; peptides 10 μM (FIG. 8)", "result": "dramatically induced"},
      {"measurement": "Effect of PTX on peptide-stimulated calcium signaling", "setting": "[5]; undifferentiated HL60 cells, data not shown", "result": "partially inhibited"},
      {"measurement": "[Ca^2+]i increase in FPRL1-expressing RBL-2H3 cells", "setting": "FPRL1", "result": "induced calcium increase"},
      {"measurement": "Phosphorylation level of ERK", "setting": "ERK; dHL60 cells (FIG. 9)", "result": "dramatic increase"},
      {"measurement": "Effect of GF109203X (PKC) on peptide-induced ERK phosphorylation", "setting": "ERK; dHL60 cells, GF109203X (5 μM) 15 minutes, 1 μM peptide 5 minutes", "result": "completely blocked"},
      {"measurement": "Effect of LY294002 (PI3K) on peptide-induced ERK phosphorylation", "setting": "ERK; dHL60 cells, LY294002 (50 μM) 15 minutes, 1 μM peptide 5 minutes", "result": "not by LY294002"},
      {"measurement": "Effect of PD98059 (MEK) on peptide-induced ERK phosphorylation", "setting": "ERK; dHL60 cells, PD98059 (50 μM) 60 minutes, 1 μM peptide 5 minutes", "result": "partially blocked"},
      {"measurement": "Time of maximal ERK activation after stimulation", "setting": "ERK; dHL60 cells, data not shown", "result": 5, "unit": "min"}
    ]}
  ]
}
